Measured values reported in patent US7326809B2, “Salts of 4- or 5-aminosalicylic acid” (Antibe Therapeutics Inc., priority 2004, dated 2008).
Structures can show the parent of a compound that is named as a salt. Where two headings read alike, the source gives them in different places.

How the values were obtained:
TNBS-induced colitis [1] = assay: TNBS-induced colitis in mice: disease activity score and MPO activity; assay type: in vivo, Balb/c mice; details: oral every 12 h for 5 days, dose equimolar to mesalamine 50 mg/kg
Description: A standard experimental animal model of colitis induced by intracolonic administration of 2,4,6-trinitrobenzene sulfonic acid (TNBS) to mice is used in the following example. A detailed description of this model has been published (Santucci et al. (2003) Gastroenterology 124:1381-94) and is incorporated herein by reference. Briefly, 6-8 week old Balb/c mice were given TNBS intracolonically at a dose of 1.5 mg in 0.1 mL of 30% ethanol. The mice were randomized to the various treatment groups (n=6 per group). Beginning one hour later and continuing every 12 h for 5 days, the mice were treated orally with vehicle (1% carboxymethylcellulose (CMC)), mesalamine (50 mg/kg) or with an equimolar dose of L-arginine salt of mesalamine.
The mice were evaluated (blindly) on the final day of the study for the presence of diarrhea and fecal occult blood, and their body weights were measured. […] The mice were then sacrificed and a sample of the colon was excised for measurement of myeloperoxidase (MPO) activity, an indicia for granulocyte infiltration.

[2] = tested on: TNF-α, IFN-γ, IL-1, IL-2, IL-10, IL-12 p40, RANTES, COX-1, COX-2, eNOS, iNOS mRNA; assay: mRNA expression (RT-PCR) of inflammatory cytokines and mediators in colon, TNBS-induced colitis in mice; assay type: in vivo; details: equimolar to mesalamine 50 mg/kg
Description: The same model was used as described above. In this example, the effects of mesalamine (50 mg/kg) were compared to those of equimolar doses of L-arginine salt of mesalamine. Tissues were processed for measurement of a number of genes for inflammatory cytokines and other mediators.
In particular, mRNA expression in mice of tumour necrosis factor-alpha (TNF-α), interferon gamma (IFN-γ), colonic interleukin (IL)-1, IL-2, IL-10, IL-12 p40, RANTES, cyclooxygenase (COX)-1, COX-2, constitutive endothelial nitric oxide synthase (eNOS), and inducible NOS (iNOS) was measured as described in Wallace et al. (1999) Gastroenterology 117: 557-566, incorporated herein by reference.
Briefly, reverse transcription-polymerase chain reaction (RT-PCR) was used to detect and quantify mRNA of the particular cytokine/chemokine/enzyme. Glyceraldehyde-3-phosphate dehydrogenase (GAPDH) was used as the “housekeeping gene” for mRNA expression (i.e., as an internal control). For each sample, the ratio of the amplification of the target gene to the amplification of GAPDH (expression of each is measured by performing densitometry on gels) was obtained. Comparisons were then made between the relative amplification (expression) of the target gene in tissues for the treatment groups in comparison to the expression in tissues from healthy controls. Thus, the data shown in the following FIGS. represent the relative expression of the target gene (normalized to GAPDH expression) as a ratio to the expression in healthy controls.

TNBS-induced colitis [3] = assay: TNBS-induced colitis in rats: edema, MPO activity, body weight; assay type: in vivo, male, Wistar rats; details: every 12 h for 4 days, salt at 50% of the dose equimolar to mesalamine 50 mg/kg
Description: Colitis was induced in male, Wistar rats by intracolonic administration of TNBS, as outlined in Wallace et al. (1990), Am J Physiol. 258: G527-G534, incorporated herein by reference. Briefly, beginning 1 h later and continuing at 12 h intervals for 4 days, the rats were treated with vehicle (1% CMC), mesalamine (50 mg/kg), L-arginine (equimolar) or L-arginine salt of mesalamine (50% of the equimolar dose). Changes in body weight were recorded, as were incidences of mortality. At the end of the study, the colon was excised and the thickness of the bowel wall was measured with digital callipers, as an index of edema. Also, a sample of tissue was processed for measurement of myeloperoxidase (MPO) activity, as an index of granulocyte infiltration.

[4] = In vitro anti-oxidant assay with a coloured, stable free radical; assay type: biochemical; details: for % Free Radical Scavenging: in ethanol, means of quadruplicate experiments; for IC50: concentration that reduced the levels of the free radical by 50%, read-out: 50% Inhibitory Concentrations IC50
Description: One of the mechanisms through which mesalamine is thought to provide benefit in the treatment of inflammatory bowel disease is through scavenging of free radicals. Therefore, the anti-oxidant activity of mesalamine was compared to that of L-arginine salt of mesalamine and L-arginine. Anti-oxidant activity of the test drugs was measured in an in vitro assay that employs a coloured, stable free radical as outlined in Vaananen, P. M. et al. (1992) Inflammation 16: 227-240 and Smith, R. C. et al. (1987) Free Rad. Biol. Med. 3: 251-257, both incorporated herein by reference. Drugs with anti-oxidant activity reduce this reagent resulting in a change in colour, which can be detected spectrophotometrically. A range of concentrations of L-arginine salt of mesalamine, mesalamine and L-arginine, all prepared in ethanol, were tested and the concentration that reduced the levels of the free radical by 50% were calculated.

[5] = following oral ingestion of 500 mg; cited from earlier work

SMILES	% Free Radical Scavenging ([4]; 0.03 mM)	% Free Radical Scavenging ([4]; 0.1 mM)	% Free Radical Scavenging ([4]; 0.3 mM)	% Free Radical Scavenging ([4]; 1 mM)	% Free Radical Scavenging ([4]; 3 mM)	% Free Radical Scavenging ([4]; 10 mM)	IC50 [4]	also measured
N=C(N)NCCC[C@H](N)C(=O)O.Nc1ccc(O)c(C(=O)O)c1 [L-arginine salt of mesalamine, L-arginine salt of 5-aminosalicylic acid]	5.2%	23.9%	57.7%	96.3%	100%	100%	–	myeloperoxidase (MPO) activity (granulocyte infiltration) (TNBS-induced colitis [1]; colon sample): superior to mesalamine alone in reducing MPO activity; disease activity score (TNBS-induced colitis [1]; 0 to 4 scale): superior to mesalamine alone in reducing the disease; COX-1 mRNA expression ([2]; colonic): suppressed; COX-2 mRNA expression ([2]; colonic): suppressed; eNOS mRNA expression ([2]; colonic): suppressed; iNOS mRNA expression ([2]; colonic): suppressed; IL-10 mRNA expression [2]: did not suppress; expression of mRNA for several pro-inflammatory cytokines and chemokines [2]: suppressed; mRNA expression of inflammatory cytokines and other mediators, every endpoint (FIGS. 3 to 8) ([2]; normalized to GAPDH, ratio to healthy controls): superior to mesalamine in every endpoint; body weight loss (TNBS-induced colitis [3]): superior to both mesalamine and L-arginine; colitis-associated edema (thickness of the bowel wall) (TNBS-induced colitis [3]): superior to both mesalamine and L-arginine; myeloperoxidase (MPO) activity (granulocyte infiltration) (TNBS-induced colitis [3]): superior to both mesalamine and L-arginine; anti-oxidant potency relative to mesalamine ([4]; from IC50 values): about three-times more potent
Nc1ccc(O)c(C(=O)O)c1 [L-arginine salt of mesalamine, L-arginine salt of 5-aminosalicylic acid]	–	–	–	–	–	–	–	IC50 ([4]; listed as ATB-428): 407 µM
N=C(N)NCCC[C@H](N)C(=O)O [L-arginine]	0%	0%	0%	0%	0%	0%	> 10000 µM	anti-oxidant activity ([4]; concentrations of up to 10 mM): did not exhibit any anti-oxidant activity; anti-oxidant activity (in words) ([4]; summary statement): very little anti-oxidant activity; free radical scavenging effects (in words) ([4]; summary statement): no free radical scavenging effects
Nc1ccc(O)c(C(=O)O)c1 [Mesalamine, 5-aminosalicylic acid]	2.2%	–	23.6%	50.3%	96.1%	100%	1250 µM	luminal concentrations of mesalamine in the colon [5]: 1 mM
